# Calls of active or inactive are those of the source. The rule behind the calls is not given here.
# Experiments:
# [1] = test system: Vero C1008; assay: (§1) Cytotoxicity against African green monkey Vero E6 cells assessed as cell viability at 5 uM incubated for 48 hrs by MTT assay; format: toxicity, cell-based; conditions: chlorocebus sabaeus, vero c1008, 48 h, 5 µM
# [2] = test system: SARS-CoV-2; assay: (§2) Antiviral activity against SARS CoV-2 Wuhan infected in African green monkey Vero E6 cells assessed as inhibition of viral replication pretreated for 15 mins followed by compound removal and induction of viral infection for 1 hr and subsequent removal of inoculum and further addition of media containing compound measured after 24 hrs by cell-based ELISA; format: functional, organism-based; conditions: for IC50: Severe acute respiratory syndrome coronavirus 2, Wuhan, Vero C1008; for inhibition: Severe acute respiratory syndrome coronavirus 2, time 24.25 hrs
# [3] = test system: SARS-CoV-2; assay: Potency index, ratio of Arbidol IC50 to test compound IC50 for antiviral activity against SARS CoV-2 Wuhan infected in African green monkey Vero E6 cells assessed as inhibition of viral replication pretreated for 15 mins followed by compound removal and induction of viral infection for 1 hr and subsequent removal of inoculum and further addition of media containing compound measured after 24 hrs …; format: functional, Severe acute respiratory syndrome coronavirus 2; conditions: time 24.25 hrs
# [4] = as §1; format: toxicity, cell-based, Vero C1008; conditions: chlorocebus sabaeus, Vero E6 cells, read-out: Activity
# [5] = test system: SARS-CoV-2; assay: as §2, with “virus inactivation at 5 uM” for “inhibition of viral replication”, “48” for “24”, “RT-qPCR analysis relative to control” for “cell-based ELISA”; format: functional, Severe acute respiratory syndrome coronavirus 2; conditions: time 48.25 hrs
# [6] = test system: SARS-CoV-2; assay: as §2, with “virus inactivation at 1 uM” for “inhibition of viral replication”, “48” for “24”, “RT-qPCR analysis relative to control” for “cell-based ELISA”; format: functional
# [7] = test system: SARS-CoV-2; assay: as §2, with “48” for “24”, “RT-qPCR analysis” for “cell-based ELISA”; format: functional, organism-based; conditions: Severe acute respiratory syndrome coronavirus 2, time 48.25 hrs
# [8] = Stability in mouse plasma assessed as compound remaining at 2 uM measured after 60 mins by LC-MS/MS analysis; format: ADME, cell-free; conditions: read-out: Stability
# [9] = Stability in human plasma assessed as compound remaining at 2 uM measured after 60 mins by LC-MS/MS analysis; format: ADME, cell-free; conditions: read-out: Stability
# [10] = Stability in mouse plasma assessed as half life at 2 uM measured up to 120 mins by LC-MS/MS analysis; format: ADME, cell-free
# [11] = Stability in human plasma assessed as half life at 2 uM measured up to 120 mins by LC-MS/MS analysis; format: ADME, cell-free
# [12] = Microsomal stability in mouse liver microsomes assessed as half life at 100 uM preincubated for 15 mins followed by NADPH addition measured up to 60 mins by LC-MS/MS analysis; format: ADME, Microsome; conditions: time < 75 min
# [13] = Microsomal stability in human liver microsomes assessed as half life at 100 uM preincubated for 15 mins followed by NADPH addition measured up to 60 mins by LC-MS/MS analysis; format: ADME, Microsome; conditions: time < 75 min
# [14] = Microsomal stability in human liver microsomes assessed as compound remaining at 100 uM preincubated for 15 mins followed by NADPH addition measured after 60 mins by LC-MS/MS analysis; format: ADME, Microsome; conditions: time 75 min, read-out: Stability
# [15] = Stability in mouse plasma assessed as compound remaining at 2 uM measured after 2 hrs by LC-MS/MS analysis; format: ADME, cell-free; conditions: read-out: Stability
# [16] = Stability in human plasma assessed as compound remaining at 2 uM measured after 2 hrs by LC-MS/MS analysis; format: ADME, cell-free; conditions: read-out: Stability
# [17] = Microsomal stability in mouse liver microsomes assessed as compound remaining at 100 uM preincubated for 15 mins followed by NADPH addition measured after 60 mins by LC-MS/MS analysis; format: ADME, Microsome; conditions: time 75 min, read-out: Stability
# [18] = Lipophilicity, LogD of compound in sodium phosphate buffer/n-octanol incubated for 3 hrs by LC-UV analysis; format: physicochemical
# [19] = biological target: T1, Voltage-gated inwardly rectifying potassium channel KCNH2 (Homo sapiens, UniProt Q12809); assay: Inhibition of hERG extracted from membrane (unknown origin) incubated for 4 hrs by fluorescence polarization assay; format: toxicity, cell membranes
# T1 sequence (Q12809 whole entry): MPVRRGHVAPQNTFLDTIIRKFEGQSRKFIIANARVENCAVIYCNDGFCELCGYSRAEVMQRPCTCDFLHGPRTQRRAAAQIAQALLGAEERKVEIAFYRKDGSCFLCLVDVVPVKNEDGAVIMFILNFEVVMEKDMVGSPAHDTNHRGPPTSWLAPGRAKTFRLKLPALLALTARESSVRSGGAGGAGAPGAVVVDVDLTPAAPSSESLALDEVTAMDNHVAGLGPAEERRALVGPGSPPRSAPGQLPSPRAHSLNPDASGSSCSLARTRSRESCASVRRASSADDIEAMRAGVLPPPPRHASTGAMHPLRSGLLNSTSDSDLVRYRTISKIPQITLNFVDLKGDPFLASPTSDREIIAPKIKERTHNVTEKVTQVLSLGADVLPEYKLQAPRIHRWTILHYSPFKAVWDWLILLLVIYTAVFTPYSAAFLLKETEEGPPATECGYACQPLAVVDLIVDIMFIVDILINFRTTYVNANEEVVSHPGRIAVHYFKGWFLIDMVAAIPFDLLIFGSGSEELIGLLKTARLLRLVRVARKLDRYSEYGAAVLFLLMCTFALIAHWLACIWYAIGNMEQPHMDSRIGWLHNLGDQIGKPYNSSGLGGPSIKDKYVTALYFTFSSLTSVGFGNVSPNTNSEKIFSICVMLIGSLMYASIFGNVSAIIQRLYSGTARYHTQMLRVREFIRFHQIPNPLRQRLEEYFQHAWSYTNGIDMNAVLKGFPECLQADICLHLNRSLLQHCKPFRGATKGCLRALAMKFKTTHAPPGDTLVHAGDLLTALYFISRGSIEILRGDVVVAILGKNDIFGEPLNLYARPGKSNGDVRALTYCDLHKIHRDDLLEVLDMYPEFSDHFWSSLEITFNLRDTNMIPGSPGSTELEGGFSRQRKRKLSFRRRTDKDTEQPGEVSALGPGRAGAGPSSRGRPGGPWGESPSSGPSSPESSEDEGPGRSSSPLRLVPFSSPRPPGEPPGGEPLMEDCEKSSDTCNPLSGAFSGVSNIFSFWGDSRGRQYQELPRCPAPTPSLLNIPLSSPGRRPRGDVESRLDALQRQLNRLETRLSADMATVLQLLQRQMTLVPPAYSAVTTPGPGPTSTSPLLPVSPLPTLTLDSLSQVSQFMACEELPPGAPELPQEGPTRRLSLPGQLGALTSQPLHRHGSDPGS
# [20] = Microsomal stability in mouse liver microsomes assessed as intrinsic clearance measured per mg protein at 100 uM preincubated for 15 mins followed by NADPH addition measured up to 60 mins by LC-MS/MS analysis; format: ADME, Microsome; conditions: time < 75 min, read-out: CLH
# [21] = Microsomal stability in human liver microsomes assessed as intrinsic clearance measured per mg protein at 100 uM preincubated for 15 mins followed by NADPH addition measured up to 60 mins by LC-MS/MS analysis; format: ADME, Microsome; conditions: time < 75 min, read-out: CLH
# [22] = test system: SARS-CoV-2; assay: Antiviral activity against SARS CoV-2 Wuhan infected in African green monkey Vero E6 cells assessed as decrease in green fluorescence at 0.7 uM incubated for 48 hrs by confocal microscopy; format: functional, organism-based; conditions: Severe acute respiratory syndrome coronavirus 2
# [23] = test system: SARS-CoV-2; assay: Antiviral activity against SARS CoV-2 Wuhan infected in African green monkey Vero E6 cells assessed as decrease in spike protein expression at 0.7 uM incubated for 48 hrs by immunofluorescence based analysis; format: functional, organism-based; conditions: Severe acute respiratory syndrome coronavirus 2
# [24] = test system: SARS-CoV-2; assay: Antiviral activity against SARS CoV-2 Wuhan infected in African green monkey Vero E6 cells assessed as decrease in viral particles at 0.7 uM incubated for 48 hrs by confocal microscopy; format: functional, organism-based; conditions: Severe acute respiratory syndrome coronavirus 2
# [25] = biological target: T1, Voltage-gated inwardly rectifying potassium channel KCNH2; assay: Inhibition of hERG; format: toxicity
# [26] = test system: Vero C1008; assay: Cytotoxicity against African green monkey Vero E6 cells assessed as cell viability at 1 uM incubated for 48 hrs by MTT assay; format: toxicity, cell-based; conditions: chlorocebus sabaeus, vero c1008, 48 h
# [27] = test system: SARS-CoV-2; assay: as §2, with “virus inactivation at 10 uM” for “inhibition of viral replication”, “48” for “24”, “RT-qPCR analysis relative to control” for “cell-based ELISA”; format: functional, Severe acute respiratory syndrome coronavirus 2; conditions: time 48.25 hrs
# [28] = Severe acute respiratory syndrome coronavirus 2, time 48.25 hrs
SMILES,Activity [1],IC50 [2],Activity [5],"remaining at 1 h, 2 µM [8]","remaining at 1 h, 2 µM [9]",half-life at 2 µM [10],half-life at 2 µM [11],half-life at 100 µM [12],half-life at 100 µM [13],"remaining at 1 h, 100 µM [14]","remaining at 1 h, 100 µM [17]",logD at 3 h [18],IC50 [19],microsomal CLint at 100 µM [20],microsomal CLint at 100 µM [21],further results
Cc1ccc(Cn2c(CSc3c(C)cc(C)cc3C)c(C(=O)NC3CCN(Cc4ccccc4)CC3)c3cc(O)c(Br)cc32)cc1,Non-toxic,1.5 µM,,,,,,,,,,,,,,Ratio IC50 [3]: ~13
CCOC(=O)c1c(CSc2ccc(F)cc2C)n(C)c2cc(Br)c(O)cc12,,,75%,,,,,,,,,,,,,"viability at 48 h, 5 µM [4]: 70%; inhibition [2]: inactive; Activity [6, 28]: Not active; No Significant Effect Observed"
CCOC(=O)c1c(CSc2ccc(F)cc2C)n(Cc2ccc(F)cc2)c2cc(Br)c(O)cc12,Non-toxic,12.7 µM,>95%,,,,,,,,,,,,,"inhibition [7]: Not active; No Significant Effect; Activity [6, 28]: Not active; No Significant Effect Observed"
CC(C)[N+](C)(CCOC(=O)C1c2ccccc2Oc2ccccc21)C(C)C [PROPANTHELINE],,,,17.4%,2.04%,52.1 min,21.3 min,,,,,,,,,
CCOC(=O)c1c(CSc2ccc(C)cc2C)n(Cc2ccc(C)cc2)c2cc(Br)c(O)c(CN(C)C)c12,Non-toxic,1.5 µM,<99.9%,,,> 120 min,> 120 min,5.08 min,2.71 min,0.31%,0.314%,3.98,6.03 µM,273 µL/min/mg,512 µL/min/mg,"remaining at 2 h, 2 µM [15]: 88.4%; remaining at 2 h, 2 µM [16]: 115%; Activity ([6]; time 48.25 hrs): <99.9%"
Cc1ccc(Cn2c(CSc3c(C)cc(C)cc3C)c(C(=O)NC(C)(C)C)c3cc(O)c(Br)cc32)cc1,Non-toxic,0.56 µM,,96.9%,116%,> 120 min,> 120 min,5.73 min,9.7 min,1.1%,0.73%,3.54,> 30 µM,143 µL/min/mg,242 µL/min/mg,Ratio IC50 [3]: ~13
Cc1ccc(Cn2c(CSc3c(C)cc(C)cc3C)c(C(=O)Nc3cnn(C)c3)c3cc(O)c(Br)cc32)cc1,Non-toxic,0.7 µM,,42.5%,28.6%,52.2 min,42 min,22.1 min,24.5 min,16.5%,18%,1.93,> 30 µM,25.8 µL/min/mg,28.3 µL/min/mg,Activity [22]: Active; Ratio IC50 [3]: ~13; Activity [23]: Active; Activity [24]: Active; Activity Was Comparable To Remdesivir
Cc1ccc(Cn2c(CSc3c(C)cc(C)cc3C)c(C(=O)NC3CCN(C(C)C)CC3)c3cc(O)c(Br)cc32)cc1,Non-toxic,0.75 µM,,74.8%,57.6%,> 240 min,> 240 min,120 min,89.8 min,59.4%,80.1%,3.95,10.6 µM,9.64 µL/min/mg,15.5 µL/min/mg,Ratio IC50 [3]: ~13
CCOC(=O)c1c(CSc2ccc(C)cc2C)n(Cc2cccc3ccccc23)c2cc(Br)c(O)cc12,Non-toxic,0.24 µM,<90%,,,180 min,> 240 min,> 120 min,> 120 min,96.7%,75.5%,3.76,> 30 µM,> 14.4 µL/min/mg,20.2 µL/min/mg,"remaining at 2 h, 2 µM [15]: 70.3%; remaining at 2 h, 2 µM [16]: 69.1%"
CCOC(=O)c1c(CSc2ccccc2F)n(C)c2cc(Br)c(O)cc12,,,,,,,,,,,,,,,,inhibition [7]: Not active; No Significant Effect; inhibition [2]: inactive; Activity ([6]; time 48.25 hrs): <90%
CCOC(=O)c1c(CSc2ccc(C)cc2C)n(C)c2cc(Br)c(O)c(CN(C)C)c12,Non-toxic,1.5 µM,>99%,,,,,,,,,,0.65 µM,,,Activity ([6]; time 48.25 hrs): >99%
CCOC(=O)c1c(CSc2ccccc2)n(C)c2cc(Br)c(O)c(CN(C)C)c12 [UMIFENOVIR],Non-toxic,9 µM,<90%,,,,,,,,,,0.54 µM,,,IC50 [25]: 0.54 µM
CCOC(=O)c1c(CSc2ccc(F)cc2C)n(Cc2ccc(C)cc2)c2cc(Br)c(O)cc12,Non-toxic,10 µM,>50%,,,,,,,,,,,,,"Activity [6, 28]: Not active; No Significant Effect Observed"
CCOC(=O)c1c(CSc2c(C)cc(C)cc2C)n(Cc2ccc(C)cc2)c2cc(Br)c(O)cc12,Non-toxic,1.5 µM,>99%,111%,87.8%,> 120 min,> 120 min,7.17 min,17.3 min,8.56%,1.23%,3.03,> 30 µM,80.2 µL/min/mg,193 µL/min/mg,
CCOC(=O)c1c(CSc2ccc(C)cc2C)n(C)c2cc(Br)c(O)cc12,,,,,,,,,,,,,,,,"viability at 48 h, 5 µM [4]: 85%; Activity [26]: Non-toxic; Activity [27]: >99.9%; inhibition [2]: inactive; Activity ([6]; time 48.25 hrs): >95%"
CN(C)CCCCNC(=O)c1c(CSc2ccc(F)cc2)n(C)c2cc(Br)c(O)cc12,Non-toxic,1.8 µM,,41.6%,70.6%,60 min,< 120 min,26.9 min,31.2 min,28%,21%,1.91,9.85 µM,25.8 µL/min/mg,22.2 µL/min/mg,
CCOC(=O)c1c(CSc2ccc(F)cc2)n(Cc2cccc3ccccc23)c2cc(Br)c(O)cc12,Non-toxic,,>90%,,,,,,,,,,,,,"inhibition [2]: inactive; Activity [6, 28]: Not active; No Significant Effect Observed"
